The supplement of paper PMC4862054

How the values were obtained:
Details in all cases: 72 h
MFM-223 [1] = system: MFM-223
In short: (§1)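 After 72 h on 384-well plates pre-loaded with compound in 5 µl medium, breast cancer cell lines seeded in 20 µl were assayed for viability with 2.5 µl CellTiter-Blue at 37 °C for 2 h, read at 560/590 nm. Each plate was quality-checked by Z'-factor and normalised to vehicle and a positive kill control. EC50 comes from the fitted percent-inhibition dose-response curve, censored at the top concentration, and rows scoring zero for drug sensitivity were left out.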

MDA-MB-231 [2] = system: MDA-MB-231
In short: as §1

SK-BR-3 [3] = system: SK-BR-3
In short: as §1

BT-474 [4] = system: BT-474
In short: as §1

MDA-MB-436 [5] = system: MDA-MB-436
In short: as §1

Hs578T [6] = system: Hs578T
In short: as §1

BT-549 [7] = system: BT-549
In short: as §1

HCC1143 [8] = system: HCC1143
In short: as §1

CAL-120 [9] = system: CAL-120
In short: as §1

HCC1937 [10] = system: HCC1937
In short: as §1

MDA-MB-468 [11] = system: MDA-MB-468
In short: as §1

CAL-51 = system: CAL-51
In short: (§2)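 The plates used were 384-well plates holding compound at 5 concentrations in 10-fold steps across a compound-specific 10,000-fold range, into which breast cancer cell lines were seeded in 20 µl suspension. Following 72 h incubation, CellTox Green fluorescence was read at 485/520 nm, and CellTiter-Glo luminescence was read after 10 min at room temperature. Normalisation on each plate used 0.1 % DMSO and a positive kill control. Dose-response curves gave the EC50, which was censored at the top concentration.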

BT-474 [12] = system: BT-474; remark: listed apart in the source
In short: as §2

CAL-85-1 = system: CAL-85-1
In short: as §2

BT-549 [13] = system: BT-549; remark: listed apart in the source
In short: as §2

MDA-MB-468 [14] = system: MDA-MB-468; remark: listed apart in the source
In short: as §2

MDA-MB-453 = system: MDA-MB-453
Protocol: (§3)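 Drug sensitivity and resistance testing (DSRT) of breast cancer cell lines in 384-well plates, 5 concentrations in 10-fold dilutions over a compound-specific 10,000-fold range. After 72 h, cytotoxicity was read by CellTox Green fluorescence and viability by CellTiter-Glo luminescence (multiplexed), normalised to DMSO and benzethonium chloride controls. EC50 is the inflection point of the fitted dose-response curve (bottom asymptote free, so it can be relative for partial curves) and is censored at the highest tested concentration. Rows with DSS 0 (no meaningful response) were excluded.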

MDA-MB-436 [15] = system: MDA-MB-436; remark: listed apart in the source
Protocol: as §3

HDQ-P1 [16] = system: HDQ-P1
In short: as §2

MDA-MB-231 [17] = system: MDA-MB-231; remark: listed apart in the source
In short: as §2

HCC1599 [18] = system: HCC1599
In short: as §2

MDA-MB-436 [19] = system: MDA-MB-436; remark: listed apart in the source
In short: as §2

Hs578T [20] = system: Hs578T; remark: listed apart in the source
In short: as §2

CAL-120 [21] = system: CAL-120; remark: listed apart in the source
In short: as §2

HCC1937 [22] = system: HCC1937; remark: listed apart in the source
In short: as §2

HDQ-P1 [23] = system: HDQ-P1; remark: listed apart in the source
Protocol: as §3

MDA-MB-231 [24] = system: MDA-MB-231; remark: listed apart in the source
Protocol: as §3

CAL-120 [25] = system: CAL-120; remark: listed apart in the source
Protocol: as §3

HDQ-P1 [26] = system: HDQ-P1; remark: listed apart in the source
In short: as §1

HCC1599 [27] = system: HCC1599; remark: listed apart in the source
In short: as §1

MFM-223 [28] = system: MFM-223; remark: listed apart in the source
In short: as §2

MCF-10A = system: MCF-10A
In short: as §2

SK-BR-3 [29] = system: SK-BR-3; remark: listed apart in the source
In short: as §2

DU-4475 = system: DU-4475
In short: as §2

HCC1143 [30] = system: HCC1143; remark: listed apart in the source
In short: as §2

EC50, CellTiter-Blue viability (MDA-MB-231 [2])	EC50, CellTiter-Blue viability (SK-BR-3 [3])	EC50, CellTiter-Blue viability (BT-474 [4])	EC50, CellTiter-Blue viability (MDA-MB-436 [5])	EC50, CellTiter-Blue viability (BT-549 [7])	EC50, CellTiter-Blue viability (HCC1143 [8])	EC50, CellTiter-Blue viability (HCC1937 [10])	EC50, CellTiter-Blue viability (MDA-MB-468 [11])	EC50, CellTiter-Glo (BT-474 [12])	EC50, CellTiter-Glo (BT-549 [13])	EC50, CellTiter-Glo (MDA-MB-468 [14])	EC50, CellTiter-Glo (MDA-MB-231 [17])	EC50, CellTiter-Glo (HCC1599 [18])	EC50, CellTiter-Glo (MDA-MB-436 [19])	EC50, CellTiter-Glo (HCC1937 [22])	EC50, CellTiter-Blue viability (HCC1599 [27])	EC50, CellTiter-Glo (SK-BR-3 [29])	EC50, CellTiter-Glo (HCC1143 [30])	SMILES	EC50, CellTiter-Blue viability (MFM-223 [1])	EC50, CellTiter-Blue viability (Hs578T [6])	EC50, CellTiter-Blue viability (CAL-120 [9])	EC50, CellTiter-Glo (CAL-51)	EC50, CellTiter-Glo (CAL-85-1)	EC50, CellTox Green (MDA-MB-453)	EC50, CellTox Green (MDA-MB-436 [15])	EC50, CellTiter-Glo (HDQ-P1 [16])	EC50, CellTiter-Glo (Hs578T [20])	EC50, CellTiter-Glo (CAL-120 [21])	EC50, CellTox Green (HDQ-P1 [23])	EC50, CellTox Green (MDA-MB-231 [24])	EC50, CellTox Green (CAL-120 [25])	EC50, CellTiter-Blue viability (HDQ-P1 [26])	EC50, CellTiter-Glo (MFM-223 [28])	EC50, CellTiter-Glo (MCF-10A)	EC50, CellTiter-Glo (DU-4475)
84.3 nM	274 nM	672 nM	173 nM	510 nM	371 nM	371 nM	834 nM	808 nM	38.2 nM	31.4 nM	–	–	–	–	–	–	–	C/C(=C\c1csc(C)n1)[C@@H]1C[C@@H]2O[C@]2(C)CCC[C@H](C)[C@H](O)[C@@H](C)C(=O)C(C)(C)[C@@H](O)CC(=O)N1 [Ixabepilone]	322 nM	625 nM	333 nM	23 nM	660 nM	–	–	–	–	–	–	–	–	–	–	–	–
–	–	–	–	–	–	–	–	–	–	> 100000 nM	–	–	–	–	–	–	–	CN(C)C(=N)NC(=N)N [Metformin]	–	–	–	360 nM	–	–	–	–	–	–	–	–	–	–	–	–	–
–	23.5 nM	–	–	–	15.2 nM	–	25.1 nM	7230 nM	–	–	6840 nM	17800 nM	1460 nM	20.4 nM	–	–	–	CN(Cc1cnc2nc(N)nc(N)c2n1)c1ccc(C(=O)N[C@@H](CCC(=O)O)C(=O)O)cc1 [Methotrexate]	–	51.5 nM	15.9 nM	19.6 nM	2020 nM	> 50000 nM	17900 nM	12.9 nM	29000 nM	809 nM	–	–	–	–	–	–	–
477 nM	1240 nM	–	204 nM	1490 nM	822 nM	237 nM	490 nM	275 nM	585 nM	229 nM	265 nM	–	690 nM	547 nM	617 nM	634 nM	414 nM	CO[C@@H]1[C@H](N(C)C(=O)c2ccccc2)C[C@H]2O[C@]1(C)n1c3ccccc3c3c4c(c5c6ccccc6n2c5c31)C(=O)NC4 [Midostaurin]	708 nM	299 nM	591 nM	308 nM	831 nM	–	–	465 nM	254 nM	275 nM	1970 nM	193 nM	510 nM	1130 nM	595 nM	130 nM	562 nM
1080 nM	1490 nM	2500 nM	2680 nM	2970 nM	2380 nM	360 nM	2270 nM	–	1680 nM	3860 nM	–	–	7150 nM	–	1370 nM	> 10000 nM	–	CO[C@@]12[C@H](COC(N)=O)C3=C(C(=O)C(C)=C(N)C3=O)N1C[C@@H]1N[C@@H]12 [Mitomycin C]	3790 nM	3560 nM	7160 nM	1140 nM	2420 nM	–	–	–	–	> 10000 nM	> 10000 nM	–	–	8560 nM	–	–	–
